Assay results from article PMC3102704, “New Classes of Alanine Racemase Inhibitors Identified by High-Throughput Screening Show Antimicrobial Activity against Mycobacterium tuberculosis” (PLoS ONE, 2011).
≈ marks a conversion by molar mass, not a printed value. Where “and” joins values, the source holds several entries; their conditions need not be identical. Equal values may be shown once. Read-outs that look alike come from different tables or passages of the source.

Tests used:
[1] = target: T1, M. tuberculosis alanine racemase (Mycobacterium tuberculosis, UniProt P9WQA9); assay: biochemical; conditions: 30-minute pre-incubation with inhibitor, triplicate
M. tuberculosis H37Rv [2] = assay: Antimicrobial susceptibility in BACTEC MGIT 960 system; assay type: cell-based, Mycobacterium tuberculosis; conditions: for Mtb: antimicrobial activity against M. tuberculosis / Mtb: antimicrobial activity against M. tuberculosis (supplement table): M. tuberculosis H37Rv, BACTEC, 50 and 100 µg/ml; for Growth inhibition of M. tuberculosis H37Rv in BACTEC culture tubes: final concentration of 50 and 100 µg/ml
M. tuberculosis H37Rv [3] = assay: Microbroth dilution MIC determination; assay type: cell-based, Mycobacterium tuberculosis; conditions: for MIC: M. tuberculosis H37Rv, microbroth dilution, 21 days, read-out: MIC against M. tuberculosis
HeLa cells = assay: Compound cytotoxicity, WST-1 Cell Proliferation Reagent; assay type: cell-based; conditions: for TC50, cytotoxicity in HeLa cells: 48 hours exposure, WST-1
Protocol: HeLa cells were grown to confluence overnight (37°C, 5% CO2) in Dulbecco's Modified Eagle Medium with 10% fetal bovine serum (Invitrogen, Carlsbad, CA). The following day, 3000 cells were plated into each well of a 96-well plate and grown overnight. Compounds were diluted in culture medium and added to the cells to yield final concentrations of 100, 50, 25, 12.5, and 6.25 µg/ml. The cells were exposed to the compounds for 48 hours, after which the effect on cells was determined using the WST-1 Cell Proliferation Reagent (Roche Applied Science, Indianapolis, IN) according to manufacturer's protocols. Absorbance at 450 nm was used to calculate percent cytotoxicity with respect to a DMSO solvent control. The results were fitted onto a sigmoidal dose-response curve using Prism software to calculate the TC50 (compound concentration that causes 50% cell death).

[4] = target: T1, M. tuberculosis alanine racemase; assay: biochemical; assay type: biochemical; conditions: D-alanine 0.5-2.5 mM, inhibitor 0.01 to 0.98 mM
[5] = target: T1, M. tuberculosis alanine racemase; assay type: binding; conditions: 4 µM alanine racemase with 1 mM inhibitor
Protocol: Electrospray ionization mass spectrometry (ESMS) was performed to detect direct interactions of inhibitors with enzyme. A mixture of 15 µl of sample (4 µM alanine racemase with 1 mM inhibitors) was diluted with 15 µl 2% acetonitrile/0.1% formic acid. Samples were then de-salted using C4 ZipTip, eluted into 15 µl 60% acetonitrile/0.1% formic acid, and directly injected into Qtof-micro MS instrument (Waters Corp., Milford, MA).

[6] = Mycobacterium tuberculosis, 504 h

T1 sequence (P9WQA9 whole entry): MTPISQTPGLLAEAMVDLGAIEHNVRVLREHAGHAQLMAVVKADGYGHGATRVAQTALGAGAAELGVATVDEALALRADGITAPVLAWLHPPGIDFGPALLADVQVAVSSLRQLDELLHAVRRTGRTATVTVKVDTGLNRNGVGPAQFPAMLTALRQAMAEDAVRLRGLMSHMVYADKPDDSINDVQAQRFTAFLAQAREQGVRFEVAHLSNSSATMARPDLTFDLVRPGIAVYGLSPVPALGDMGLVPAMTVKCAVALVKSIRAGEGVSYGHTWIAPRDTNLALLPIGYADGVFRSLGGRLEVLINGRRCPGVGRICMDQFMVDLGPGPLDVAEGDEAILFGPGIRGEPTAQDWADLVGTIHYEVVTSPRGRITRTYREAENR

| Compound | IC50 [1] | Mtb: antimicrobial activity against M. tuberculosis (M. tuberculosis H37Rv [2]) | Mtb: antimicrobial activity against M. tuberculosis (supplement table) (M. tuberculosis H37Rv [2]) | Growth inhibition of M. tuberculosis H37Rv in BACTEC culture tubes (M. tuberculosis H37Rv [2]) | MIC (M. tuberculosis H37Rv [3]) | TC50, cytotoxicity in HeLa cells (HeLa cells) | Ki [4] | Nature of inhibitor-enzyme interaction by ESMS [5] | MIC (M. tuberculosis H37Rv [3]; [6]) | Cytotoxicity relative to MIC (HeLa cells; compared with MIC against M. tuberculosis) | Increase in the MIC in the presence of D-alanine (M. tuberculosis H37Rv [3]; 5 mM D-alanine in the growth medium, data not shown) |
| --- | --- | --- | --- | --- | --- | --- | --- | --- | --- | --- | --- |
| COC(=O)c1cccc(C(=O)Oc2ccc(OC(=O)c3cccc(C(=O)OC)n3)c(Cl)c2)n1 [L2-10, 6-O-[3-chloro-4-(6-methoxycarbonylpyridine-2-carbonyl)oxyphenyl]2-O-methyl pyridine-2,6-dicarboxylate] | 1 µM | + | + | inhibited growth at both concentrations | 13.6 µM (≈ 6.4 µg/mL) | 157.2 µM | 680 µM | not definitive |  |  |  |
| S=C(Cc1ccccc1)N1CCCCC1 [L2-12, 2-phenyl-1-piperidin-1-ylethanethione] | 6 µM | + | + | inhibited growth at both concentrations |  | 406 µM | 80 µM | irreversible | 28.6 µM (≈ 6.27 µg/mL) |  |  |
| CCOc1ccc(CCNC(=O)Cn2sc3nc(C)cc(C)c3c2=O)cc1 [L2-13, 2-(4,6-dimethyl-3-oxo-[1], [2]thiazolo[5,4-b]pyridin-2-yl)-N-[2-(4-ethoxyphenyl)ethyl]acetamide] | 7.7 µM | + | + | inhibited growth at both concentrations | 16.2 µM (≈ 6.24 µg/mL) | 36.4 µM | 930 µM | irreversible |  |  |  |
| CNC(=O)COc1ccccc1O [L2-15, 2-(2-hydroxyphenoxy)-N-methylacetamide] | 5.7 µM | − | - |  |  |  |  |  |  |  |  |
| O=C(c1cccs1)c1no[n+]([O-])c1C(=O)c1cccs1 [L2-18, 1,1′-(2-oxido-1,2,5-oxadiazole-3,4-diyl)-bis (1-(2-thienyl))-methanone] | 4.9 µM | − | - |  |  |  |  |  |  |  |  |
| O=C(COc1ccccc1O)NO [L2-03, N-hydroxy-2-(2-hydroxyphenoxy)acetamide] | 8.2 µM | − | - |  |  |  |  |  |  |  |  |
| COc1ccc(CC(=S)N2CCOCC2)cc1 [L2-09, 2-(4-methoxyphenyl)-1-morpholin-4-ylethanethione] | 3.3 µM | − | - |  |  |  |  |  |  |  |  |
| 2-(hydoxyimino)-6-methyl-2H-benzopyran-3-carboxamide [L2-14] | 2.8 µM | − | - |  |  |  |  |  |  |  |  |
| O=C(O)CSC(=S)Nc1cccnc1 [L2-11, 2-(pyridin-3-ylcarbamothioylsulfanyl)acetic acid] | 13.1 µM | − | - |  |  |  |  |  |  |  |  |
| CS(=O)(=O)c1ncc(Cl)c(C(=O)NCc2ccccc2)n1 [L2-05, N-benzyl-5-chloro-2-methylsulfonylpyrimidine-4-carboxamide] | 6.8 µM | + | + | inhibited growth at both concentrations |  | 20 µM | 630 µM | irreversible | 9 µM (≈ 2.93 µg/mL) |  |  |
| COc1ccc(NC(=O)c2nc(S(C)(=O)=O)ncc2Cl)cc1Cl [L2-06, 5-chloro-N-(3-chloro-4-methoxyphenyl)2(methylsulfonyl)pyrimidine-4carboxamide] | 8.2 µM | + | + | inhibited growth at both concentrations |  | 18.8 µM | 760 µM | irreversible | < 4.5 µM |  |  |
| O=C1Nc2ccccc2C(=O)C1(O)O [L2-16, 3,3-dihydroxy-1H-quinoline-2,4-dione] | 5.2 µM | + | + | inhibited growth at both concentrations |  | 33.7 µM | 20 µM | reversible | 32.4 µM (≈ 6.26 µg/mL) | cytotoxic at slightly above its MIC |  |
| CCOC(=O)CCSc1ccccn1 [L2-04, ethyl 3-(pyridin-2-ylthio)propanoate] | 2.6 µM | + | + | inhibited growth at both concentrations |  | 229.8 µM | 38 µM | reversible | 59 µM (≈ 12.5 µg/mL) |  |  |
| Cc1ccc(S(=O)(=O)NN(C)C)cc1 [L2-01, N′,N′,4-trimethylbenzenesulfonohydrazide] | 9 µM | − | - |  |  |  |  |  |  |  |  |
| Cc1ccc(CC(=S)N2CCOCC2)cc1 [L2-07, 2-(4-methylphenyl)-1-morpholin-4-ylethanethione] | 6.5 µM | − | - |  |  |  |  |  |  |  |  |
| CN(C)NS(=O)(=O)c1ccc2c(c1)Cc1cc(S(=O)(=O)NN(C)C)ccc1-2 [L2-02, 2-N′,2-N′,7-N′,7-N′-tetramethyl-9H-fluorene-2,7-disulfonohydrazide] | 1.6 µM | − | - |  |  |  |  |  |  |  |  |
| N[C@@H]1CONC1=O [CS, (4R)-4-amino-3-isoxazolidinone, reference compound] |  | + | + |  |  | 203 µM |  | irreversible modification of the enzyme | 6.5 µg/mL and 65 µM |  | 3 fold |
